Four compounds from article PMC11475281, “A Novel Liver Cancer-Selective Histone Deacetylase Inhibitor Is Effective against Hepatocellular Carcinoma and Induces Durable Responses with Immunotherapy” (ACS Pharmacology & Translational Science, 2024) can be followed below.

Where two headings read alike, the source gives them in different places.

The target in one assay is T1, HDAC6 (Homo sapiens, UniProt Q9UBN7).
T1 sequence (Q9UBN7 1-1215): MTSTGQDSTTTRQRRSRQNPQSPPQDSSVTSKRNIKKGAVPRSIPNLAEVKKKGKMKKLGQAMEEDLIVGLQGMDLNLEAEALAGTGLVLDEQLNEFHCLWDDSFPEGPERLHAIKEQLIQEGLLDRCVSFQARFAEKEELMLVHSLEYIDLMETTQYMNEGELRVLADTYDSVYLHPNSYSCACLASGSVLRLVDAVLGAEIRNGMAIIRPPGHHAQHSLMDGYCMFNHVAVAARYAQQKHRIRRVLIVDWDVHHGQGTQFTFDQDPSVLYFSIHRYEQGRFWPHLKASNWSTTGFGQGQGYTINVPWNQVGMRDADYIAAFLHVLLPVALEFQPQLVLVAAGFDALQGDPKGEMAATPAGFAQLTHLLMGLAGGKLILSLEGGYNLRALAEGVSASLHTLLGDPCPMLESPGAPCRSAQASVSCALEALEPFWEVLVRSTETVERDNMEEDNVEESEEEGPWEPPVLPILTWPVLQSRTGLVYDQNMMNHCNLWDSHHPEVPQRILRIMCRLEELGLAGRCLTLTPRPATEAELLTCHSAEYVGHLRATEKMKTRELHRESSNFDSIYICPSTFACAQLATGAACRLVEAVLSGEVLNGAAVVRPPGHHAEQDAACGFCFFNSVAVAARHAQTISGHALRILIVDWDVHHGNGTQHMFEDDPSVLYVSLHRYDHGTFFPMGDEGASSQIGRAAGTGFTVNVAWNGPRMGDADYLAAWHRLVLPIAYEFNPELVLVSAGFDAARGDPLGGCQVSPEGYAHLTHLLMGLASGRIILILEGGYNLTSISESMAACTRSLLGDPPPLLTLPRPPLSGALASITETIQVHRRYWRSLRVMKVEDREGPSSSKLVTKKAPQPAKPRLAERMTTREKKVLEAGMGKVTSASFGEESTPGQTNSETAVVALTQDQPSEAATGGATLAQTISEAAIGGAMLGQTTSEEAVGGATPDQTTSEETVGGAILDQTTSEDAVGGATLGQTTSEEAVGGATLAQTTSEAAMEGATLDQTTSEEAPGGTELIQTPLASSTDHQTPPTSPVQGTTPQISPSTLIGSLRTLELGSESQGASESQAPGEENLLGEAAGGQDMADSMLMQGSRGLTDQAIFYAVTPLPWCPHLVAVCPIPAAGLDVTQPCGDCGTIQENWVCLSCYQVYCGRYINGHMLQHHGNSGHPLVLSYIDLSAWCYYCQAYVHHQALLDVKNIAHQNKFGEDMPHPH
Briefly: HDAC isoform inhibition (BPS Bioscience).

A further assay addresses HDAC2 (Homo sapiens, UniProt Q92769). Briefly: HDAC isoform inhibition (BPS Bioscience).
Assay [1] has as its system A549 (lung adenocarcinoma). Description: MTS cell viability assay, 72 h. It is filed as cell-based. An excerpt:
(§1) We then screened STR-V-53 and all the synthesized glycosylated HDACi for their effects on the viability of three cell lines: A549 (lung adenocarcinoma), Hep-G2 (HCC), and VERO (a normal kidney epithelial cell). We used SORA and STR-V-48, a previously disclosed nonglycosylated compound, as controls.[25] […] Additionally, compound STR-V-167, the peracetylated analog of STR-V-53, largely retained the Hep-G2 selectivity of STR-V-53 (Table S2). Subsequently, we evaluated the effects of STR-V-53 on cell proliferation using a panel of human HCC cell lines (Huh-7, SK-Hep-1, and Hep3B) as well as Kupffer cells (liver resident macrophages) by MTS assay. We observed that STR-V-53 is 7- to 16-fold more cytotoxic against these HCC cell lines relative to the Kupffer cells (Figure 1g). […] Based on their weak HDAC and cell proliferation inhibition activities, we de-emphasized further evaluation of the class III compounds.
(§2) 10-017-CV), supplemented with 10% fetal bovine serum (FBS) (Corning, 35-010-CV). Hep-G2 cells were cultured in phenol red-free Minimum Essential Medium (MEM) (Corning, 17-305-CV), supplemented with 10% fetal bovine serum (FBS). SK-Hep-1 in ATCC-formulated EMEM (ATCC® 30–2003™); Huh-7 in DMEM (containing 4 mM L-glutamine and 1 g/L glucose) with […]
(§3) Kupffer Cell Media (Sekisui XenoTech, LLC, Cat. #K8700). Cells were seeded into a 96-well plate (2000 counts/100uL) for 24 h prior to treatment and then treated with various drug concentrations for 72 h. All drugs were dissolved in media with DMSO concentration maintained at 1%. The effect of compounds on cell viability was measured using the MTS assay (CellTiter 96 Aqueous One Solution and CellTiter 96 Non-Radioactive Cell Proliferation Assays, Promega, Madison, WI) as described by the manufacturer. IC50s were determined using Prism GraphPad 8. […]
(Tetrazolium dyes change colour on reduction, which living cells bring about.)

Assay [2] deals with VERO (a normal kidney epithelial cell). Description: MTS cell viability assay, 72 h. It counts as cell-based.
Source text: as §1, §2, §3

For another assay, the system named is Hep-G2 cells. Description: Immunoblotting of cleaved Caspase 3 and p21WAF/CIP. It is filed as cell-based, human. The conditions noted are these: for Caspase 3 cleavage (cleaved Caspase 3/Pro-caspase 3): IC50 or 2× IC50 for 18 h; for p21WAF/CIP level: higher concentrations, 18 h. The method, then: Figure 3 Effects of STR-V-53 on intracellular markers of HDAC inhibition, antitumor immune response, and apoptosis. (a) STR-V-53 upregulates the levels of acetylated H4 and tubulin in Hep-G2 cells. Hep-G2 cells were treated with DMSO or 0.1% DMSO solution of SAHA (1.25 μM) and STR-V-53 (1.25 μM, 2.5 μM). Cells were treated for 5 h before lysis. Data are from two independent experiments. (b) STR-V-53 upregulates PD-L1 and downregulates PD-1 expressions in Hep-G2 cells. Cells were treated with DMSO or 0.1% DMSO solution of SAHA (5 μM and 10 μM) and STR-V-53 (10 and 20 μM) for 24 h. (c) STR-V-53 and SAHA caused upregulation of the levels of CD54 in the Hep-G2 cell line. Cells were treated with DMSO or 0.1% DMSO solution of SAHA (5 and 10 μM) and STR-V-53 (5, 10, and 20 μM) for 24 h. […] Cells were treated with DMSO or 0.1% DMSO solution of SAHA (5 μM) and STR-V-53 (10 and 20 μM).
HDAC inhibition could cause cell apoptosis through caspase cleavage and p21^WAF/CIP upregulation.[37] To probe if our compounds elicit a similar phenotype, we investigated the effects representative examples on the cellular levels of cleaved Caspase 3 and p21^WAF/CIP through immunoblotting.
In general terms: Immunoblotting shows a protein as a band on a membrane.

A further assay has as its target HDAC1 (Homo sapiens, UniProt Q13547). Briefly: HDAC isoform inhibition (BPS Bioscience).
Setting [3] is: Table S2, read-out: Anti-proliferation IC50 A549.
The mark [4] stands for this setting: Table S2, read-out: Anti-proliferation IC50 VERO.

HDAC1, sequence (Q13547 whole entry, canonical isoform): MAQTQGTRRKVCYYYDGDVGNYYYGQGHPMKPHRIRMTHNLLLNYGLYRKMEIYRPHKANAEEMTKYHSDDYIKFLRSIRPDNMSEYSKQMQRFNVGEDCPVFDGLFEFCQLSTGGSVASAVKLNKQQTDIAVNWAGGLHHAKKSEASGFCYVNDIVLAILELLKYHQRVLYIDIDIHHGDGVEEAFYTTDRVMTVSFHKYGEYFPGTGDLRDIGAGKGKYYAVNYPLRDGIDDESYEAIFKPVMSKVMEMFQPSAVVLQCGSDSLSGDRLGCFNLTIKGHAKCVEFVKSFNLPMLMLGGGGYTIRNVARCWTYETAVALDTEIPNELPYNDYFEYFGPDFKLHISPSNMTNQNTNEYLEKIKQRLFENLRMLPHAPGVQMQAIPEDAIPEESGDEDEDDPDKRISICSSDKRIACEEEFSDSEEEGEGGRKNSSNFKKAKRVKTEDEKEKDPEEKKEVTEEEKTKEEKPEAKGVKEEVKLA
HDAC2, sequence (Q92769 whole entry, canonical isoform): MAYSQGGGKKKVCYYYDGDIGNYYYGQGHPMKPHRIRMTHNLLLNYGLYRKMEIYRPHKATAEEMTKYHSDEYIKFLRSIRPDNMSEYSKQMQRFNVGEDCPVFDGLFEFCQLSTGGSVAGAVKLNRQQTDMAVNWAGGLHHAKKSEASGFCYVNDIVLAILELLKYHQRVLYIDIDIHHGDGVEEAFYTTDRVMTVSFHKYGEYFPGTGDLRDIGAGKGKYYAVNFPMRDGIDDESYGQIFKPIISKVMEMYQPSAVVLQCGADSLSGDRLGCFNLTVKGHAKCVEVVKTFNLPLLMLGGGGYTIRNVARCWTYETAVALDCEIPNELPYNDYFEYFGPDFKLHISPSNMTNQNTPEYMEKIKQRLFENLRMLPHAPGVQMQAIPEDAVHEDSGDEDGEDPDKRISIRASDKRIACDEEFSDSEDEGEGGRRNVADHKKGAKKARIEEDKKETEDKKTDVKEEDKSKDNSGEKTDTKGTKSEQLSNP

`O=C(CCCCCCn1cc(-c2ccc(O[C@H]3O[C@H](CO)[C@@H](O)[C@H](O)[C@H]3O)cc2)nn1)NO` [STR-V-53]: the IC50 against HDAC6 is 3.43 nM; at HDAC2 it was 60.1 nM; in assay [1] (Homo sapiens, A549, Figure 1g, read-out: Anti-proliferation effects IC50 (μM) A549) it was above 100 µM; in assay [2] (Chlorocebus sabaeus, Vero, Figure 1g, read-out: Anti-proliferation effects IC50 (μM) Vero), above 100 µM; against HDAC1, 24.3 nM. In addition, in the assay with Hep-G2 cells, the “Caspase 3 cleavage (cleaved Caspase 3/Pro-caspase 3)” value (“Caspase 3 cleavage” for short) is given as “significant upregulation of cleave Caspase 3/Pro-caspase 3 ratio”. Besides, in the assay with Hep-G2 cells, the p21WAF/CIP level entry is “upregulated significantly”.
Consider `O=C(CCCCCCn1cc(-c2ccc3cc(O[C@H]4O[C@H](CO)[C@@H](O)[C@H](O)[C@H]4O)ccc3c2)nn1)NO` [STR-V-114], for which the IC50 at HDAC6 (read-out: HDAC6 IC50, Table S1) turned out to be 4.5 nM; on HDAC2 (read-out: HDAC2 IC50, Table S1), 61.5 nM; in assay [1] (setting [3]) it was 77.2 ± 4.3 µM; in assay [2] (setting [4]), 34.1 ± 3 µM; at HDAC1 (read-out: HDAC1 IC50, Table S1), 20.3 nM.
Take `O=C(CCCCCCC(=O)Nc1ccccc1)NO` [SAHA, vorinostat, reference compound]: the “Caspase 3 cleavage” value with Hep-G2 cells is listed as “showed cleavage of Caspase 3”.
On to `O=C(CCCCCCn1cc(-c2ccc(O[C@@H]3O[C@H](CO)[C@@H](O)[C@H](O)[C@H]3O)cc2)nn1)NO` [STR-I-195], for which the IC50 at HDAC6 (read-out: HDAC6 IC50, Table S1) is 2.51 nM; on HDAC2 (read-out: HDAC2 IC50, Table S1), 29.1 nM; in assay [1] (setting [3]), above 100 µM; in assay [2] (setting [4]), 65.5 ± 8.3 µM; on HDAC1 (read-out: HDAC1 IC50, Table S1) it was 14.6 nM. For the same compound, the “Caspase 3 cleavage” value with Hep-G2 cells was “showed cleavage of Caspase 3”. The p21WAF/CIP level entry with Hep-G2 cells is “upregulated significantly”.
